The values that follow are results of earlier work, collected in US20020192834A1, “Analysis of caffeine” (priority 2001, published 2002).

For this data set the following is noted: after consuming caffeine in coffee; background statement.

Turning to `Cn1c(=O)c2c(ncn2C)n(C)c1=O` [caffeine, trimethylxanthine], the half-life of caffeine entry is on record as “about 6 hours”.
